# Values quoted from earlier work in patent US10308909B2, “Dried spore germinative compound mixtures” (Envera, LLC, priority 2013, dated 2019).
# Key:
# bacterial spores = conditions: concentrations as low as
Molecule,inhibition of Bacillus germination (Bacillus),concentration that inhibits germination (bacterial spores)
C[C@@H](N)C(=O)O [D-alanine],powerful inhibitor of Bacillus germination,
Oc1ccccc1 [phenol],,0.2 % (wt./vol)
cresol,,0.08 % (wt./vol)
